What all share (format): cell-based
In assay [1] the target is T1, TYK2 (Homo sapiens, UniProt P29597). In words: TYK2 degradation MSD assay in OCI-LY10 cells. On the set-up: endogenous in cells; host or cells: EBV-B cells. The note with it: 4 to 24 hours incubation, read-out: TYK2 MSD DC50 rating in OCI-LY10. The essentials: (§1)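 MSD electrochemiluminescence readout of residual TYK2 in RIPA lysates after 4–24 h compound exposure at 37° C. Dosing: 9 concentrations, 1:3 steps, top 1 to 10 μM. DC50 fitted by four-parameter inhibitor vs. response regression.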

The target of assay [2] is T1, TYK2. Briefly: TYK2 degradation MSD assay in human PBMC cells. The note with it: 4 to 24 hours incubation, read-out: TYK2 MSD DC50 rating in human PBMC. Also noted: endogenous in cells; host or cells: human PBMC. The essentials: as §1
The target in assay [3] is T1, TYK2. Briefly: TYK2 degradation MSD assay in EBV-B cells. On the set-up: endogenous in cells; host or cells: EBV-B cells. The note with it: 4 to 24 hours incubation, read-out: TYK2 MSD DC50 rating in EBV-B. The essentials: as §1

Molecules are shown by their SMILES. Some results are limits rather than exact numbers.

T1 sequence (P29597 whole entry): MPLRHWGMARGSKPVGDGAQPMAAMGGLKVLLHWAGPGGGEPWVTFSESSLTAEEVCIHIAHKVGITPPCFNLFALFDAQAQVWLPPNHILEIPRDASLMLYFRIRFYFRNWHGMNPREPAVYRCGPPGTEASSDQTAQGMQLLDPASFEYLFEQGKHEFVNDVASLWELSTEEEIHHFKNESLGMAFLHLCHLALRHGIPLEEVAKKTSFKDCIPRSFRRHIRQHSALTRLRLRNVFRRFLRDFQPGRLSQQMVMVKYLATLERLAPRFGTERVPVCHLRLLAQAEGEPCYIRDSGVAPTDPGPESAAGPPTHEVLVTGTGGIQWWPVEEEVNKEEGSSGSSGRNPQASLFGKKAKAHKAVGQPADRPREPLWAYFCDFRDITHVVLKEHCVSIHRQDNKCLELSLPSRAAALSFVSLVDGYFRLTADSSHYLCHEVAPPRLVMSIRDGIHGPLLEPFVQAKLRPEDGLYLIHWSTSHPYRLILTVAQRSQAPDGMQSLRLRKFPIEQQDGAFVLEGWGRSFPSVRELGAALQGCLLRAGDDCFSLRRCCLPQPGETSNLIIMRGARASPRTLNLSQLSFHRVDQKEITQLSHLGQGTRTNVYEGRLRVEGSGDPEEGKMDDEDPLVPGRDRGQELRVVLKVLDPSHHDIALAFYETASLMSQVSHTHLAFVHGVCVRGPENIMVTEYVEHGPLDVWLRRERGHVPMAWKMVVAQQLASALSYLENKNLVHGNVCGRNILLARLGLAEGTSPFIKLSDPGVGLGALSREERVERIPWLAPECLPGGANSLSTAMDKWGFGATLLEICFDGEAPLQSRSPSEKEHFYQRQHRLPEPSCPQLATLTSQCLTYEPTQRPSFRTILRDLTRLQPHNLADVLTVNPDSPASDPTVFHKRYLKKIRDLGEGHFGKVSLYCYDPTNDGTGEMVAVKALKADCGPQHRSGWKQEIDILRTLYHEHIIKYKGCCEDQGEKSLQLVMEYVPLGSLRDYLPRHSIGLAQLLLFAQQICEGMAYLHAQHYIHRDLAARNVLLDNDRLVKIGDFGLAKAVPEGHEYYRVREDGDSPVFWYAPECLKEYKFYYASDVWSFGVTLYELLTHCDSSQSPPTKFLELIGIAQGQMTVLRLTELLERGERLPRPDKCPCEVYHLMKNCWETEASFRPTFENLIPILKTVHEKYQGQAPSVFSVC

By DC50 is commonly meant the concentration giving 50% degradation. Take `CCc1nn(-c2cccc(F)c2OC)c2cc(Nc3ccc(CN(C)C4CCN(c5cccc6c5n(C)c(=O)n6C5CCC(=O)NC5=O)CC4)cn3)ncc12` (stereo not drawn) [Example K537]: the DC50 at TYK2 [1], on TYK2 [2] and on TYK2 [3] was over 0.1 µM each time.
As for `CNc1cc(Nc2cccc(-c3ccc(CN4CCN(c5ccc(-c6ccc7c(c6)n(C)c(=O)n7C6CCC(=O)NC6=O)cc5)CC4)cn3)c2OC)nn2c(C(=O)NC3CC3C)cnc12` (stereo not drawn) [Example K542], the DC50 was 0.001 to 0.01 µM at TYK2 [1], over 0.1 µM at TYK2 [2] and over 0.1 µM on TYK2 [3].
For the compound `CNc1cc(Oc2ccn(C3CCN(CC4CCN(c5ccc(-c6ccc7c(c6)n(C)c(=O)n7C6CCC(=O)NC6=O)cc5)CC4)CC3)n2)nn2c(C(=O)N[C@@H]3C[C@@H]3F)cnc12` (stereo partly drawn) [Example K549], the DC50 on TYK2 [1], at TYK2 [2] and at TYK2 [3] was over 0.1 µM throughout.
Turning to `CNc1cc(-c2ccc(C3CCN(CC4CCN(c5ccc(-c6ccc7c(c6)n(C)c(=O)n7C6CCC(=O)NC6=O)cc5)CC4)CC3)cc2)c2n3c(cnc13)C(=O)N(C1CC1)C2` (stereo not drawn) [Example K550], the DC50 at TYK2 [1], on TYK2 [2] and on TYK2 [3] was over 0.1 µM in each case.
In the case of `CNc1cc(N2CCc3c(N4CCC(CN5CCN(c6ccc(-c7ccc8c(c7)n(C)c(=O)n8C7CCC(=O)NC7=O)cc6)CC5)CC4)cccc32)nn2c(C(=O)N[C@@H]3C[C@@H]3F)cnc12` (stereo partly drawn) [Example K551], the half-maximal degradation concentration (DC50) is over 0.1 µM on TYK2 [1], over 0.1 µM on TYK2 [2] and 0.001 to 0.01 µM at TYK2 [3].
Consider `O=C1CCN(c2cc(C(=O)N3CCC4(CC3)CN(Cc3ccc(-c5cccc6c5CCN6c5ccc6ncc(C(=O)NC7CC7)n6n5)nc3)C4)ccc2Cl)C(=O)N1` [Example K554], for which the DC50 at TYK2 [1], at TYK2 [2] and at TYK2 [3] was over 0.1 µM each time.
Turning to `Cn1c(=O)n(C2CCC(=O)NC2=O)c2ccc(-c3ccc(N4CCN(Cc5ccc(-c6cccc(Nc7nn8c(C(=O)N[C@@H]9C[C@@H]9F)cnc8c8c7OCCN8)c6)nc5)CC4)cc3)cc21` (stereo partly drawn) [Example K557], the DC50 at TYK2 [1] was under 0.001 µM; on TYK2 [2], over 0.1 µM; at TYK2 [3], over 0.1 µM.
In the case of `CC#Cc1nn(-c2cccc(F)c2OC)c2cc(Nc3ccc(CN(C)C4CCN(c5cccc6c5n(C)c(=O)n6C5CCC(=O)NC5=O)CC4)cn3)ncc12` (stereo not drawn) [Example K558], the DC50 at TYK2 [1], on TYK2 [2] and at TYK2 [3] was over 0.1 µM each time.
On to `CNc1cc(N2CCc3c(-c4ccc(CN5CCC(N6CCN(C(=O)c7ccc(Cl)c(N8CCC(=O)NC8=O)c7)CC6)CC5)cn4)cccc32)nn2c(C(=O)N[C@@H]3C[C@@H]3F)cnc12` [Example K559], for which the figures for the DC50 on TYK2 [1], at TYK2 [2] and at TYK2 [3] were 0.001 to 0.01 µM, over 0.1 µM and over 0.1 µM, respectively.
Consider `CNc1cc(Nc2cccn(-c3ccc(C(=O)NCCCCc4cncc(N5CCC[C@H](C(=O)Nc6ccc(=O)n(CC(=O)O)c6)C5)c4)cn3)c2=O)nn2c(C(=O)N[C@@H]3C[C@@H]3F)cnc12` [Example K561], for which the DC50 at TYK2 [1], on TYK2 [2] and on TYK2 [3] was over 0.1 µM throughout.
With `CNc1cc(Nc2cccc(-c3ccc(CN4CCN(c5ccc(-c6ccc7c(c6)n(C)c(=O)n7C6CCC(=O)NC6=O)cc5)CC4)cn3)c2F)nn2c(C(=O)N[C@@H]3C[C@@H]3F)cnc12` (stereo partly drawn) [Example K563], the DC50 on TYK2 [1] was under 0.001 µM; on TYK2 [2], over 0.1 µM; on TYK2 [3], over 0.1 µM.
As to `CNc1cc(Nc2cccc(CN3CCN(c4ccc(-c5ccc6c(c5)n(C)c(=O)n6C5CCC(=O)NC5=O)cc4)CC3)c2Cl)nn2c(C(=O)N[C@@H]3C[C@@H]3F)cnc12` (stereo partly drawn) [Example K564], the DC50 at TYK2 [1] is under 0.001 µM; at TYK2 [2] it was over 0.1 µM; on TYK2 [3], over 0.1 µM.
With `CNc1cc(-c2ccc(CN3CCN(c4ccc(-c5ccc6c(c5)n(C)c(=O)n6C5CCC(=O)NC5=O)cc4)CC3)cc2)nn2c(C(=O)N[C@@H]3C[C@@H]3F)cnc12` (stereo partly drawn) [Example K565], the DC50 on TYK2 [1], on TYK2 [2] and on TYK2 [3] was over 0.1 µM throughout.
As to `CNc1cc(N2CCc3c(-c4ccc(CN5CCN([C@H]6CC[C@H](c7ccc(-c8ccc9c(c8)n(C)c(=O)n9C8CCC(=O)NC8=O)cc7)CC6)CC5)cn4)cccc32)nn2c(C(=O)N[C@@H]3CC3F)cnc12` (stereo partly drawn) [Example K566], the half-maximal degradation concentration (DC50) was 0.001 to 0.01 µM at TYK2 [1], over 0.1 µM on TYK2 [2] and over 0.1 µM at TYK2 [3].
For the compound `CNc1cc(Nc2cccc(-c3ccc(CN4CCN(C5CCC(c6ccc(-c7ccc8c(c7)n(C)c(=O)n8C7CCC(=O)NC7=O)cc6)CC5)CC4)cn3)c2OC)nn2c(C(=O)N[C@@H]3C[C@@H]3F)cnc12` (stereo partly drawn) [Example K567], the DC50 is under 0.001 µM at TYK2 [1], over 0.1 µM at TYK2 [2] and over 0.1 µM on TYK2 [3].
Consider `CNc1cc(N2CCc3c(N4CCC(CC5CC6(CCN(C(=O)c7ccc(Cl)c(N8CCC(=O)NC8=O)c7)CC6)C5)CC4)cccc32)nn2c(C(=O)N[C@@H]3C[C@@H]3F)cnc12` [Example K568], for which the DC50 was 0.001 to 0.01 µM at TYK2 [1], over 0.1 µM on TYK2 [2] and over 0.1 µM on TYK2 [3].
As for `CNc1cc(Nc2cccn(-c3ccc(C(=O)NCCCCCCCCc4cncc(N5CCC[C@H](C(=O)Nc6ccc(=O)n(CC(=O)O)c6)C5)c4)cn3)c2=O)nn2c(C(=O)N[C@@H]3C[C@@H]3F)cnc12` [Example K571], the DC50 on TYK2 [1], on TYK2 [2] and on TYK2 [3] was over 0.1 µM each time.
Regarding `CNc1cc(N2CCc3c(N4CCC(CN5CC6(C5)CN(c5ccc(-c7ccc8c(c7)n(C)c(=O)n8C7CCC(=O)NC7=O)cc5)C6)CC4)cccc32)nn2c(C(=O)N[C@@H]3C[C@@H]3F)cnc12` (stereo partly drawn) [Example K573], the values for the DC50 on TYK2 [1], on TYK2 [2] and on TYK2 [3] were 0.001 to 0.01 µM, over 0.1 µM and over 0.1 µM, respectively.
Take `CNc1cc(N2CCc3c(-c4ccc(CN5CC6(C5)CN(c5ccc(-c7ccc8c(c7)n(C)c(=O)n8C7CCC(=O)NC7=O)cc5)C6)cn4)cccc32)nn2c(C(=O)N[C@@H]3C[C@@H]3F)cnc12` (stereo partly drawn) [Example K574]: the DC50 at TYK2 [1] was 0.001 to 0.01 µM; at TYK2 [2], over 0.1 µM; at TYK2 [3], over 0.1 µM.
Take `CNc1cc(Nc2cccc(CN3CCN(c4ccc(-c5ccc6c(c5)n(C)c(=O)n6C5CCC(=O)NC5=O)cc4)CC3)c2OC)nn2c(C(=O)N[C@@H]3C[C@@H]3F)cnc12` (stereo partly drawn) [Example K576]: the DC50 on TYK2 [1], at TYK2 [2] and on TYK2 [3] was over 0.1 µM in each case.
Regarding `CNc1cc(Nc2cc(F)cc(-c3ccc(CN4CCN(c5ccc(-c6ccc7c(c6)n(C)c(=O)n7C6CCC(=O)NC6=O)cc5)CC4)cn3)c2OC)nn2c(C(=O)N[C@@H]3C[C@@H]3F)cnc12` (stereo partly drawn) [Example K577], the DC50 at TYK2 [1] is 0.001 to 0.01 µM; on TYK2 [2] it was over 0.1 µM; on TYK2 [3], over 0.1 µM.
Take `CNc1cc(Nc2cccc(CN3CCC(c4cccc5c4n(C)c(=O)n5C4CCC(=O)NC4=O)CC3)c2)nn2c(C(=O)NC3CC3)cnc12` (stereo not drawn) [Example K578]: the DC50 at TYK2 [1], on TYK2 [2] and on TYK2 [3] was over 0.1 µM in each case.
On to `CNc1cc(Nc2cccc(CN3CCC34CN(c3ncc(C#Cc5ccc6c(c5)n(C)c(=O)n6C5CCC(=O)NC5=O)cn3)C4)c2)nn2c(C(=O)NC3CC3)cnc12` (stereo not drawn) [Example K580], for which the DC50 on TYK2 [1], on TYK2 [2] and on TYK2 [3] was over 0.1 µM in each case.
Take `CNc1cc(Nc2cccc(CN3CCC([C@@H]4CCN(c5ccc6c(c5)n(C)c(=O)n6C5CCC(=O)NC5=O)C4)CC3)c2)nn2c(C(=O)NC3CC3)ncc12` (stereo partly drawn) [Example K581]: the DC50 at TYK2 [1] is under 0.001 µM; at TYK2 [2], over 0.1 µM; at TYK2 [3] it was over 0.1 µM.
`CNc1cc(Nc2cccc(CN3CCC4(CCCN(CCC5C=c6c(n(C7CCC(=O)NC7=O)c(=O)n6C)=CC5)C4)C3)c2)nn2c(C(=O)NC3CC3)cnc12` (stereo not drawn) [Example K582]: the DC50 at TYK2 [1], on TYK2 [2] and on TYK2 [3] was over 0.1 µM throughout.
On to `CNc1cc(Nc2cccc(CN3CCC(N(C)CC4CCN(c5ccc(-c6ccc7c(c6)n(C)c(=O)n7C6CCC(=O)NC6=O)cc5)C4)CC3)c2)nn2c(C(=O)NC3CC3)cnc12` (stereo not drawn) [Example K583], for which the DC50 is under 0.001 µM on TYK2 [1], over 0.1 µM at TYK2 [2] and over 0.1 µM at TYK2 [3].
In the case of `CNc1cc(Nc2cccc(CN3CCC4(CC3)CC(Cc3ccc5c(c3)n(C)c(=O)n5C3CCC(=O)NC3=O)C4)c2)nn2c(C(=O)NC3CC3)cnc12` (stereo not drawn) [Example K584], the DC50 on TYK2 [1], on TYK2 [2] and on TYK2 [3] was over 0.1 µM throughout.
As for `CNc1cc(Nc2cccc(CN3CCC(c4ncc(-c5ccc6c(c5)n(C)c(=O)n6C5CCC(=O)NC5=O)cn4)CC3)c2)nn2c(C(=O)NC3CC3)cnc12` (stereo not drawn) [Example K585], the DC50 at TYK2 [1] was 0.001 to 0.01 µM; on TYK2 [2], over 0.1 µM; on TYK2 [3] it was over 0.1 µM.
As for `CNc1cc(Nc2cccc(CN3CC4(CCN(c5ccc(-c6ccc7c(c6)n(C)c(=O)n7C6CCC(=O)NC6=O)cn5)CC4)C3)c2)nn2c(C(=O)NC3CC3)cnc12` (stereo not drawn) [Example K586], the DC50 is 0.001 to 0.01 µM at TYK2 [1], over 0.1 µM on TYK2 [2] and over 0.1 µM on TYK2 [3].
With `CNc1cc(Nc2cccc(CN3CCN(C(=O)CCc4ccc(-c5ccc6c(c5)n(C)c(=O)n6C5CCC(=O)NC5=O)cc4)CC3)c2)nn2c(C(=O)NC3CC3)cnc12` (stereo not drawn) [Example K587], the DC50 was 0.001 to 0.01 µM at TYK2 [1], over 0.1 µM at TYK2 [2] and over 0.1 µM on TYK2 [3].
Take `CNc1cc(Nc2cccc(CN3CCC4(CCN(c5ccc(-c6ccc7c(c6)n(C)c(=O)n7C6CCC(=O)NC6=O)cc5)C4)C3)c2)nn2c(C(=O)NC3CC3)cnc12` (stereo not drawn) [Example K588]: the 50% degradation concentration (DC50) on TYK2 [1] is 0.001 to 0.01 µM; at TYK2 [2] it was over 0.1 µM; on TYK2 [3], over 0.1 µM.

(Values after patent US20250051338A1, “TYK2 DEGRADERS AND USES THEREOF” (Kymera Therapeutics, Inc., priority 2021, published 2025).)
